Data: the NIST ThermoML archive (doi:10.1021/acs.jced.9b00442)
Numbers after ± are expanded uncertainties.

Assay: refractive index (Na D-line) (dimensionless)
Settings: 353.15 K; 100 kPa; Liquid; Standard Abbe refractometry
CC[N+](C)(C)CCCO.O=S(=O)([N-]S(=O)(=O)C(F)(F)F)C(F)(F)F gave a refractive index of 1.4076 ± 0.0017.
Work on CCCC[N+](C)(C)CC.O=S(=O)([N-]S(=O)(=O)C(F)(F)F)C(F)(F)F yielded a refractive index of 1.3985 ± 0.0017.

Same assay, conditions: 358.15 K; 100 kPa; Liquid; Standard Abbe refractometry
CC[N+](C)(C)CCOC.O=S(=O)([N-]S(=O)(=O)C(F)(F)F)C(F)(F)F showed a refractive index of 1.3959 ± 0.0017.
In the case of CC[N+](C)(C)CCCO.O=S(=O)([N-]S(=O)(=O)C(F)(F)F)C(F)(F)F, the refractive index is reported as 1.4064 ± 0.0017.
With CCCC[N+](C)(C)CC.O=S(=O)([N-]S(=O)(=O)C(F)(F)F)C(F)(F)F the refractive index was 1.3973 ± 0.0017.

Assay: not given
Settings: 283.15 K; 100 kPa; Liquid; Frequency=0.0006 MHz; Alternating current cell with electrodes
For CC[N+](C)(C)CCOC.O=S(=O)([N-]S(=O)(=O)C(F)(F)F)C(F)(F)F, the electrical conductivity was 0.141 ± 0.003 S/m.
With CC[N+](C)(C)CCCO.O=S(=O)([N-]S(=O)(=O)C(F)(F)F)C(F)(F)F the electrical conductivity was 0.049 ± 0.001 S/m.
CCCC[N+](C)(C)CC.O=S(=O)([N-]S(=O)(=O)C(F)(F)F)C(F)(F)F gave an electrical conductivity of 0.082 ± 0.002 S/m.

Same assay, conditions: 288.15 K; 100 kPa; Liquid; Concentric cylinders viscometry
For CC[N+](C)(C)CCOC.O=S(=O)([N-]S(=O)(=O)C(F)(F)F)C(F)(F)F, the viscosity was 100.4 ± 4.1 mPa·s.
Compound CC[N+](C)(C)CCCO.O=S(=O)([N-]S(=O)(=O)C(F)(F)F)C(F)(F)F has a viscosity of 314 ± 14 mPa·s.
In the case of CCCC[N+](C)(C)CC.O=S(=O)([N-]S(=O)(=O)C(F)(F)F)C(F)(F)F, the viscosity is reported as 176.1 ± 7.6 mPa·s.

Same assay, conditions: 288.15 K; 100 kPa; Liquid; Frequency=0.0006 MHz; Alternating current cell with electrodes
CC[N+](C)(C)CCOC.O=S(=O)([N-]S(=O)(=O)C(F)(F)F)C(F)(F)F gave an electrical conductivity of 0.182 ± 0.004 S/m.
Compound CC[N+](C)(C)CCCO.O=S(=O)([N-]S(=O)(=O)C(F)(F)F)C(F)(F)F has an electrical conductivity of 0.069 ± 0.001 S/m.
Compound CCCC[N+](C)(C)CC.O=S(=O)([N-]S(=O)(=O)C(F)(F)F)C(F)(F)F has an electrical conductivity of 0.11 ± 0.002 S/m.

Same assay, conditions: 288.15 K; 100 kPa; Liquid; Vibrating tube method
With CC[N+](C)(C)CCOC.O=S(=O)([N-]S(=O)(=O)C(F)(F)F)C(F)(F)F the mass density was 1440.5 ± 1.1 kg/m3.
CC[N+](C)(C)CCCO.O=S(=O)([N-]S(=O)(=O)C(F)(F)F)C(F)(F)F gave a mass density of 1472.2 ± 1.2 kg/m3.
In the case of CCCC[N+](C)(C)CC.O=S(=O)([N-]S(=O)(=O)C(F)(F)F)C(F)(F)F, the mass density is reported as 1380.6 ± 1.1 kg/m3.

Same assay, conditions: 289.15 K; 100 kPa; Liquid; Vibrating tube method
For CC[N+](C)(C)CCOC.O=S(=O)([N-]S(=O)(=O)C(F)(F)F)C(F)(F)F, the mass density was 1439.5 ± 1.1 kg/m3.
With CC[N+](C)(C)CCCO.O=S(=O)([N-]S(=O)(=O)C(F)(F)F)C(F)(F)F the mass density was 1471.4 ± 1.2 kg/m3.
Work on CCCC[N+](C)(C)CC.O=S(=O)([N-]S(=O)(=O)C(F)(F)F)C(F)(F)F yielded a mass density of 1379.7 ± 1.1 kg/m3.

Same assay, conditions: 290.15 K; 100 kPa; Liquid; Vibrating tube method
In the case of CC[N+](C)(C)CCOC.O=S(=O)([N-]S(=O)(=O)C(F)(F)F)C(F)(F)F, the mass density is reported as 1438.6 ± 1.1 kg/m3.
Compound CC[N+](C)(C)CCCO.O=S(=O)([N-]S(=O)(=O)C(F)(F)F)C(F)(F)F has a mass density of 1470.5 ± 1.2 kg/m3.
CCCC[N+](C)(C)CC.O=S(=O)([N-]S(=O)(=O)C(F)(F)F)C(F)(F)F gave a mass density of 1378.8 ± 1.1 kg/m3.

Same assay, conditions: 291.15 K; 100 kPa; Liquid; Vibrating tube method
In the case of CC[N+](C)(C)CCOC.O=S(=O)([N-]S(=O)(=O)C(F)(F)F)C(F)(F)F, the mass density is reported as 1437.6 ± 1.1 kg/m3.
CC[N+](C)(C)CCCO.O=S(=O)([N-]S(=O)(=O)C(F)(F)F)C(F)(F)F gave a mass density of 1469.6 ± 1.2 kg/m3.
For CCCC[N+](C)(C)CC.O=S(=O)([N-]S(=O)(=O)C(F)(F)F)C(F)(F)F, the mass density was 1377.9 ± 1.1 kg/m3.

Same assay, conditions: 292.15 K; 100 kPa; Liquid; Vibrating tube method
In the case of CC[N+](C)(C)CCOC.O=S(=O)([N-]S(=O)(=O)C(F)(F)F)C(F)(F)F, the mass density is reported as 1436.7 ± 1.1 kg/m3.
With CC[N+](C)(C)CCCO.O=S(=O)([N-]S(=O)(=O)C(F)(F)F)C(F)(F)F the mass density was 1468.7 ± 1.2 kg/m3.
With CCCC[N+](C)(C)CC.O=S(=O)([N-]S(=O)(=O)C(F)(F)F)C(F)(F)F the mass density was 1377 ± 1.1 kg/m3.

Same assay, conditions: 293.15 K; 100 kPa; Liquid; Concentric cylinders viscometry
In the case of CC[N+](C)(C)CCOC.O=S(=O)([N-]S(=O)(=O)C(F)(F)F)C(F)(F)F, the viscosity is reported as 78.3 ± 3.2 mPa·s.
With CC[N+](C)(C)CCCO.O=S(=O)([N-]S(=O)(=O)C(F)(F)F)C(F)(F)F the viscosity was 220.1 ± 9.8 mPa·s.
CCCC[N+](C)(C)CC.O=S(=O)([N-]S(=O)(=O)C(F)(F)F)C(F)(F)F showed a viscosity of 132.4 ± 5.6 mPa·s.

Same assay, conditions: 293.15 K; 100 kPa; Liquid; Frequency=0.0006 MHz; Alternating current cell with electrodes
With CC[N+](C)(C)CCOC.O=S(=O)([N-]S(=O)(=O)C(F)(F)F)C(F)(F)F the electrical conductivity was 0.23 ± 0.005 S/m.
For CC[N+](C)(C)CCCO.O=S(=O)([N-]S(=O)(=O)C(F)(F)F)C(F)(F)F, the electrical conductivity was 0.095 ± 0.002 S/m.
With CCCC[N+](C)(C)CC.O=S(=O)([N-]S(=O)(=O)C(F)(F)F)C(F)(F)F the electrical conductivity was 0.143 ± 0.003 S/m.

Same assay, conditions: 293.15 K; 100 kPa; Liquid; Vibrating tube method
With CC[N+](C)(C)CCOC.O=S(=O)([N-]S(=O)(=O)C(F)(F)F)C(F)(F)F the mass density was 1435.7 ± 1.1 kg/m3.
For CC[N+](C)(C)CCCO.O=S(=O)([N-]S(=O)(=O)C(F)(F)F)C(F)(F)F, the mass density was 1467.8 ± 1.2 kg/m3.
CCCC[N+](C)(C)CC.O=S(=O)([N-]S(=O)(=O)C(F)(F)F)C(F)(F)F showed a mass density of 1376.1 ± 1.1 kg/m3.

Same assay, conditions: 294.15 K; 100 kPa; Liquid; Vibrating tube method
CC[N+](C)(C)CCOC.O=S(=O)([N-]S(=O)(=O)C(F)(F)F)C(F)(F)F showed a mass density of 1434.8 ± 1.1 kg/m3.
For CC[N+](C)(C)CCCO.O=S(=O)([N-]S(=O)(=O)C(F)(F)F)C(F)(F)F, the mass density was 1466.9 ± 1.2 kg/m3.
With CCCC[N+](C)(C)CC.O=S(=O)([N-]S(=O)(=O)C(F)(F)F)C(F)(F)F the mass density was 1375.2 ± 1.1 kg/m3.

Same assay, conditions: 295.15 K; 100 kPa; Liquid; Vibrating tube method
CC[N+](C)(C)CCOC.O=S(=O)([N-]S(=O)(=O)C(F)(F)F)C(F)(F)F showed a mass density of 1433.8 ± 1.1 kg/m3.
Work on CC[N+](C)(C)CCCO.O=S(=O)([N-]S(=O)(=O)C(F)(F)F)C(F)(F)F yielded a mass density of 1466.1 ± 1.2 kg/m3.
Work on CCCC[N+](C)(C)CC.O=S(=O)([N-]S(=O)(=O)C(F)(F)F)C(F)(F)F yielded a mass density of 1374.3 ± 1.1 kg/m3.
